Measurements taken from article PMC12209699, “Waxy‐ or Putty‐Like Materials as a Novel Drug Preparation for Synthetic Cannabinoid Receptor Agonists: Detection in Prisons and In Vitro Cannabinoid Receptor Activity” (Drug Testing and Analysis, 2024).
Where two headings read alike, the source gives them in different places.

Key:
CB1 = settings: ref [4], [60], cited from earlier work; for EC50: earlier in vitro data, read-out: EC 50 at CB1; for E max at CB1: normalized to CP55,940
CB1 receptor = CB1 receptor (Homo sapiens, UniProt P21554); experiment: NanoBiT βarr2 recruitment bioassay at CB1 (HEK 293T cells stably expressing CB1‐βarr2); settings: for E max at CB1: normalized to E max of CP55,940 (set at 100%)
CB2 receptor = CB2 receptor (Homo sapiens, UniProt P34972); experiment: NanoBiT βarr2 recruitment bioassay at CB2 (HEK 293T cells stably expressing CB2‐βarr2); settings: for E max at CB2: normalized to E max of CP55,940 (set at 100%)
Sequence of CB2 receptor (P34972 whole entry): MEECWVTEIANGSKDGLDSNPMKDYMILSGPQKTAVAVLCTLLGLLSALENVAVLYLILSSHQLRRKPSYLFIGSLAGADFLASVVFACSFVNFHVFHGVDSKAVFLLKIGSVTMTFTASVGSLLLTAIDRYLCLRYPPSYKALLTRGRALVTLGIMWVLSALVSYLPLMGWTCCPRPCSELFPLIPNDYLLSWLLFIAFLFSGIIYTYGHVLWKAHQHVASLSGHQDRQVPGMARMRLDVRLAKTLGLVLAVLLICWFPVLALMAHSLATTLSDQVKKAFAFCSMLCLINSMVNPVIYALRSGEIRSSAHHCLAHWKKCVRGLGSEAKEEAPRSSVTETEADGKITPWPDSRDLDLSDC
Sequence of CB2 receptor (P32121 whole entry partner): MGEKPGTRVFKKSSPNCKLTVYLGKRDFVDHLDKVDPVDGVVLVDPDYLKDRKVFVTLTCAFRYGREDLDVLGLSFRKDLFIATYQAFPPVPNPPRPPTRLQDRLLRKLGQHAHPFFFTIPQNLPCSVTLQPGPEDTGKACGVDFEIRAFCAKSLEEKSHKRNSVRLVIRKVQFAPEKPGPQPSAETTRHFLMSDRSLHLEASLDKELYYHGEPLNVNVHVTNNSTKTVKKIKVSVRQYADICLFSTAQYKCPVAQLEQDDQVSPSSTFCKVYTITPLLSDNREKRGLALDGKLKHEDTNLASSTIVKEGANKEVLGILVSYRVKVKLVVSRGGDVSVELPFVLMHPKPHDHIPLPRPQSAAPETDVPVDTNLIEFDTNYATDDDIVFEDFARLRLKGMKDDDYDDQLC

Sequence of CB1 receptor (P21554 whole entry): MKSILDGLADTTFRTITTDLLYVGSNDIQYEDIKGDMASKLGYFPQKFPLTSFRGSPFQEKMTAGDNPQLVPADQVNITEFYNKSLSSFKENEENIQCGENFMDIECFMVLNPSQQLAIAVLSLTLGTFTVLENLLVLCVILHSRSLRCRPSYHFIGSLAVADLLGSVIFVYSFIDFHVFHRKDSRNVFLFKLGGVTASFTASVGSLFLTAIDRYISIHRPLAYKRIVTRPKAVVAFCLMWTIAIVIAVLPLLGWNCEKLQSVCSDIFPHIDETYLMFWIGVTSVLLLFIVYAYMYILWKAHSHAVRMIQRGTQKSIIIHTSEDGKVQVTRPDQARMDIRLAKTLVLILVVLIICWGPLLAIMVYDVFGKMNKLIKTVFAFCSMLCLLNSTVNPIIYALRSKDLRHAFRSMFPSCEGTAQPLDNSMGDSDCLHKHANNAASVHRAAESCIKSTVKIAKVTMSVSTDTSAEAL
Sequence of CB1 receptor (P32121 whole entry partner): as the sequence (P32121 whole entry partner) above

CCCCn1nc(C(=O)N[C@H](C(N)=O)C(C)(C)C)c2ccccc21 [ADB‐BUTINACA]
EC50 (CB1): 19 nM | E max at CB1 (CB1): 728%

CCCCCn1cc(C(=O)c2cccc3ccccc23)c2ccccc21 [JWH‐018]
E max at CB1 (CB1 receptor; interval in brackets): 342 (300–385) % | EC50 (CB1 receptor; read-out: EC 50 at CB1, βarr2 recruitment, three‐parameter logistic fit, interval in brackets): 18.8 nM | E max at CB2 (CB2 receptor; interval in brackets): 71.9 (66–77.9) % | EC50 (CB2 receptor; read-out: EC 50 at CB2, βarr2 recruitment, three‐parameter logistic fit, interval in brackets): 5.9 nM

C=CCCCn1nc(C(=O)N[C@H](C(=O)OC)C(C)(C)C)c2ccccc21 [MDMB‐4en‐PINACA]
EC50 (CB1): 1.88 nM | E max at CB1 (CB1): 679%

COC(=O)[C@@H](NC(=O)c1n[nH]c2ccccc12)C(C)(C)C [MDMB‐INACA]
EC50 (CB1 receptor): 6810 nM | E max at CB1 (CB1 receptor; interval in brackets): 268 (233–305) % | EC50 (CB2 receptor): 55.2 nM | E max at CB2 (CB2 receptor; interval in brackets): 150 (134–167) %
